pIC50: −log10 of the molar value. Read-outs that look alike come from different tables or passages of the source.
Experiments:
Format in all cases: biochemical
recombinant human TOP2B [1] = biological target: T1, recombinant human TOP2B (Homo sapiens, UniProt Q02880); test: In vitro ATPase activity of TOP2B (coupled assay); conditions: for SRbeta (SRTOP2B), TOP2 ATPase activity: TOP2A IC50 divided by TOP2B IC50; for pIC50: n=3
T1 construct: Using recombinant full-length human TOP2A and TOP2B enzymes; YFP (N, cleaved yes); made in house; host or cells: HEK293F
T1 sequence (Q02880 1-1621 isoform Q02880-2): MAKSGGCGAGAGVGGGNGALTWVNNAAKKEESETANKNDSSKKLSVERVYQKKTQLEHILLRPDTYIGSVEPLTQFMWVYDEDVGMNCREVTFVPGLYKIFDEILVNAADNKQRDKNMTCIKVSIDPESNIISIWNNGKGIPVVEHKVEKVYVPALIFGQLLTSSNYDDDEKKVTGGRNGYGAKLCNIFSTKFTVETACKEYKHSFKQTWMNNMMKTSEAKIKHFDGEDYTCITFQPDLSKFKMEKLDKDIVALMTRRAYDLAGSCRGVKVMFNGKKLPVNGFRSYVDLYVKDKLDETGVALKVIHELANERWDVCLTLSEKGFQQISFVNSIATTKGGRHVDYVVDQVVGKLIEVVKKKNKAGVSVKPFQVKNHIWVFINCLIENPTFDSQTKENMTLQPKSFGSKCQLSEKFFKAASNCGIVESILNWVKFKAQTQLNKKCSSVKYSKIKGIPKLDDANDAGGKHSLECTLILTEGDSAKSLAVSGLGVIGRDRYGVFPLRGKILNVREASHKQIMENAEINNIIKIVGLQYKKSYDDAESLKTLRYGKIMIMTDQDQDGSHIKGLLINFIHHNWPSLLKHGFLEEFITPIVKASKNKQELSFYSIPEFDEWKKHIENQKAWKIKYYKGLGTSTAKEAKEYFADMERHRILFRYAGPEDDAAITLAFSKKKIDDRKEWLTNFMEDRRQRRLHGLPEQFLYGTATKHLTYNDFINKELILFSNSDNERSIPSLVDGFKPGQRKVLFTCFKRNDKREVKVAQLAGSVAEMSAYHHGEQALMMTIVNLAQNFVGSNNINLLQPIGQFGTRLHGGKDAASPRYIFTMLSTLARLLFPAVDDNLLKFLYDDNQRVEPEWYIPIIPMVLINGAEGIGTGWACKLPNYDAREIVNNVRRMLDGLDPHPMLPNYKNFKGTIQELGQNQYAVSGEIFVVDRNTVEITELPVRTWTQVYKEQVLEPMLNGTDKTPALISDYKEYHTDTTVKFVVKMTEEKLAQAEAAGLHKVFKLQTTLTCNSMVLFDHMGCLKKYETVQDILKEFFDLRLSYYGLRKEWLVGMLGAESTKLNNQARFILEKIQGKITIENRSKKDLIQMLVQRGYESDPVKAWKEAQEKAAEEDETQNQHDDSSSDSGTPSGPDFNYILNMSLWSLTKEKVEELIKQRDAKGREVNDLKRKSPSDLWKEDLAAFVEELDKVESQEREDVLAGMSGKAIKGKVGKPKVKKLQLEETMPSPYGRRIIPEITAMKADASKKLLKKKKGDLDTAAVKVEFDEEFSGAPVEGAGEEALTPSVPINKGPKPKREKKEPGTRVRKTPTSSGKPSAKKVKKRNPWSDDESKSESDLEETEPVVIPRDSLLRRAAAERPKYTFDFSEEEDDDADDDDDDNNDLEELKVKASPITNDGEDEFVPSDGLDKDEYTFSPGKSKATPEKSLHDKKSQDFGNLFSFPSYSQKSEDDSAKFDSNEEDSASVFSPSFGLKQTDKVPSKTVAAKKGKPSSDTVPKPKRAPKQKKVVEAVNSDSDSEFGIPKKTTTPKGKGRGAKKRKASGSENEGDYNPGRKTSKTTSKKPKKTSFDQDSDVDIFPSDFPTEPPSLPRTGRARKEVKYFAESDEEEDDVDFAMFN
Outline: (§1)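 Recombinant human TOP2A or TOP2B, prediluted to 500 nM in HEPES pH 7.5/500 mM NaCl storage buffer, in an NADH-coupled ATP hydrolysis assay, ATP-initiated at 30 °C. NADH fluorescence decay (ex 340, em 480) read every 30 s for 120 cycles. Slopes background-corrected, normalized to untreated controls, and fitted for IC50.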

recombinant human TOP2A [2] = biological target: T2, recombinant human TOP2A (Homo sapiens, UniProt P11388); test: In vitro ATPase activity of TOP2A (coupled assay); conditions: for pIC50: n=3
T2 construct: Using recombinant full-length human TOP2A and TOP2B enzymes; YFP (N, cleaved yes); made in house; host or cells: HEK293F
T2 sequence (P11388 whole entry): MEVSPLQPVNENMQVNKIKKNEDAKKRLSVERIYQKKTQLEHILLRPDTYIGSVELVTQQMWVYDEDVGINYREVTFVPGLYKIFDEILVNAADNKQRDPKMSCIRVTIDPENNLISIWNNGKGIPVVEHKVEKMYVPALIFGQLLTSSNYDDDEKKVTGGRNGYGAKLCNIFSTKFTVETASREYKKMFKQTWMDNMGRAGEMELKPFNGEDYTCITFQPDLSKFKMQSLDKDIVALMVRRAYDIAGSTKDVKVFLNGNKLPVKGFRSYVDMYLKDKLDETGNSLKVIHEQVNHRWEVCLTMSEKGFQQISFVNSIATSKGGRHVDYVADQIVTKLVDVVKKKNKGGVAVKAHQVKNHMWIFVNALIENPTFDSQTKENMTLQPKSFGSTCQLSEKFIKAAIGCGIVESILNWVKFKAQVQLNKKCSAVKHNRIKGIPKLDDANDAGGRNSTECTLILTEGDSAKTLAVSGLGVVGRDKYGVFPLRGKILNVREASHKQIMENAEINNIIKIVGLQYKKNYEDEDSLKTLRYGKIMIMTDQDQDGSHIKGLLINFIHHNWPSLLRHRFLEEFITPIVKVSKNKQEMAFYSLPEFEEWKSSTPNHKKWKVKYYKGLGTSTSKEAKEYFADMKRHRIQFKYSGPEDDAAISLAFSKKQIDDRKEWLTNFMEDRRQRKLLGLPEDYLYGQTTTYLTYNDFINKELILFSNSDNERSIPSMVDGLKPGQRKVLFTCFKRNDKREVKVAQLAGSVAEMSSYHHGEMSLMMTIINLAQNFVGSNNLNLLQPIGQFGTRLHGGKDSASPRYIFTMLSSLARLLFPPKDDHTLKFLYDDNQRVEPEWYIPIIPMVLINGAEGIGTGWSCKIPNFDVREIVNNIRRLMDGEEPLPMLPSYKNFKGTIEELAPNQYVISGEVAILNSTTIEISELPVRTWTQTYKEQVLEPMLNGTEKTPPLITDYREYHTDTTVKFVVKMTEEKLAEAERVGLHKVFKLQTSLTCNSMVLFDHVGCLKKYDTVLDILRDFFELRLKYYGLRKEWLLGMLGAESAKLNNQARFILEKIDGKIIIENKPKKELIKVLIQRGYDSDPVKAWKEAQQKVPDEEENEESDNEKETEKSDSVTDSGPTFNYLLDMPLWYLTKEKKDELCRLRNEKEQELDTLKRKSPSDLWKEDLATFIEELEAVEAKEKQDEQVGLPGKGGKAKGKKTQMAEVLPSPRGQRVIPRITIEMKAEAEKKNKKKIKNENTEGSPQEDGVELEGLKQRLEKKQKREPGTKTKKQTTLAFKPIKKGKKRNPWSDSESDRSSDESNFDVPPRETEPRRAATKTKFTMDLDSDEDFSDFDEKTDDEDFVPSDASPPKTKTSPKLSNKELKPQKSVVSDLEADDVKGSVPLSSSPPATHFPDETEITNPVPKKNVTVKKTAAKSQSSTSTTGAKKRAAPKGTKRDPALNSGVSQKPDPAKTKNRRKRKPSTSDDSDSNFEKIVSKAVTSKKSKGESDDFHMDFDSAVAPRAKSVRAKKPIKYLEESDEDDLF
Outline: as §1

recombinant human TOP2A [3] = biological target: T2, recombinant human TOP2A; test: DNA decatenation assay, recombinant TOP2A; conditions: for pIC50: enzyme expressed in HEK293F, n=3
Procedure: (§2) The human topoisomerase II decatenation assay was performed to determine the inhibitory effects of BNS-22 and new compounds as previously described with minor modifications[14],[36]. The assay was performed using recombinant human TOP2A or TOP2B generated using the HEK293F YFP-tag expression system as previously described[18],[19],[36]. Briefly, plasmids encoding YFP-TOP2A or YFP-TOP2B were transfected into HEK293F cells (Catalog number 11625019, Thermofisher Scientific), and TOP2 proteins were isolated from cell lysates by anti-YFP nanobody affinity chromatography. After elution by TEV protease cleavage, TOP2 proteins were FPLC purified by sequential cation exchange and size exclusion chromatography. Plasmid encoding TOP2B C88Y was generated by round-the-horn PCR mutagenesis and the sequence was verified by full-plasmid sequencing. Purified TOP2 proteins were stored in a storage buffer containing 20 mM HEPES pH 7.5, 500 mM NaCl, 0.5 mM TCEP, 25% (v/v) glycerol at -80 °C. For decatenation assays, purified TOP2 proteins were incubated with 200 ng kDNA (Topogen) in a reaction buffer containing 50 mM Tris−HCl (pH 8), 100 mM NaCl, 10 mM MgCl2, 0.5 mM DTT, 2 mM ATP, 0.1 mM tris(2-carboxyethyl)phosphine (TCEP), 5% (v/v) glycerol, 70 μg/mL bovine serum albumin, and 1/10 volume of each compound diluted in 10% DMSO (final DMSO concentration 1%) for 40 min at 37 °C. The reaction was then stopped by the addition of gel loading buffer (0.5 volumes of 60% (w/v) glycerol, 60 mM EDTA, 20 mM Tris−HCl (pH 7.5), 0.5 mg/mL bromophenol blue) and the samples were placed on ice. Reaction products were resolved by agarose gel electrophoresis in TBE buffer containing GelRed stain (Biotium). Gels were visualized using an iBright CL1000 (Thermofisher Scientific). Band intensities were quantified using FIJI, and the signal of the treated samples was normalized to the value of the control (untreated sample; 100%) present on the same gel. The normalized signal of three independent measurements was then expressed as mean ± SD. Each presented data point was obtained from distinct sample. Normalized values were plotted as a function of inhibitor concentration to determine IC50 values by nonlinear regression with variable slope using Prism 9 (GraphPad).

recombinant human TOP2B [4] = biological target: T1, recombinant human TOP2B; test: DNA decatenation assay, recombinant TOP2B; conditions: for SRbeta (SRTOP2B), decatenation activity: TOP2A IC50 divided by TOP2B IC50; for pIC50: enzyme expressed in HEK293F, n=3
Procedure: as §2

[5] = independent replicates, read-out: Normalized % TOP2B activity, ATPase
[6] = independent replicates, read-out: Normalized % TOP2A activity, ATPase
[7] = independent replicates, normalized to 0 drug, read-out: Normalized % TOP2B activity
[8] = independent replicates, normalized to 0 drug, read-out: Normalized % TOP2A activity

## C[C@@H](CN1CC(=O)NC(=O)C1)N1CC(=O)NC(=O)C1 [dexrazoxane]
Recombinant human TOP2B [1]; 0.03125 μM, independent replicates, read-out: Normalized % TOP2B activity, ATPase
  remaining activity at 0.03125 µM: 97.9%
Recombinant human TOP2B [1]; [5]
  remaining activity at 0.0625 µM: 99.9%
  remaining activity at 0.125 µM: 96.3%
  remaining activity at 0.25 µM: 88.7%
  remaining activity at 0.5 µM: 80.9%
  remaining activity at 1 µM: 74.8%
  remaining activity at 2 µM: 68.4%
  remaining activity at 4 µM: 45%
  remaining activity at 8 µM: 24.3%
Recombinant human TOP2B [1]; 16 μM, independent replicates, read-out: Normalized % TOP2B activity, ATPase
  remaining activity at 16 µM: 14.6%
Recombinant human TOP2B [1]; 32 μM, independent replicates, read-out: Normalized % TOP2B activity, ATPase
  remaining activity at 32 µM: 13.2%
Recombinant human TOP2B [1]; ATPase
  relative inhibition of TOP2A vs TOP2B: inhibits ATP hydrolysis for both isoforms with equal potency
Recombinant human TOP2B [1]
  SRbeta (SRTOP2B), TOP2 ATPase activity: 0.89
  pIC50: 5.59
Recombinant human TOP2A [2]; [6]
  remaining activity at 0.125 µM: 90.6%
  remaining activity at 0.25 µM: 86.6%
  remaining activity at 1 µM: 62.9%
  remaining activity at 4 µM: 29.5%
  remaining activity at 8 µM: 19%
  remaining activity at 16 µM: 14.4%
Recombinant human TOP2A [2]
  pIC50: 5.64
Recombinant human TOP2A [3]; 0.059 μM, independent replicates, read-out: Normalized % TOP2A activity, decatenation
  remaining activity at 0.059 µM: 112%
Recombinant human TOP2A [3]; 0.469 μM, independent replicates, read-out: Normalized % TOP2A activity, decatenation
  remaining activity at 0.469 µM: 114%
Recombinant human TOP2A [3]; 0.938 μM, independent replicates, read-out: Normalized % TOP2A activity, decatenation
  remaining activity at 0.938 µM: 94.4%
Recombinant human TOP2A [3]; 1.875 μM, independent replicates, read-out: Normalized % TOP2A activity, decatenation
  remaining activity at 1.875 µM: 68.7%
Recombinant human TOP2A [3]; 7.500 μM, independent replicates, read-out: Normalized % TOP2A activity, decatenation
  remaining activity at 7.5 µM: 33.6%
Recombinant human TOP2A [3]
  pIC50: 5.47
Recombinant human TOP2B [4]; 0.029 μM, independent replicates, read-out: Normalized % TOP2B activity, decatenation
  remaining activity at 0.029 µM: 88.8%
Recombinant human TOP2B [4]; 0.469 μM, independent replicates, read-out: Normalized % TOP2B activity, decatenation
  remaining activity at 0.469 µM: 75.2%
Recombinant human TOP2B [4]; 15.000 μM, independent replicates, read-out: Normalized % TOP2B activity, decatenation
  remaining activity at 15 µM: 12.9%
Recombinant human TOP2B [4]; 30.000 μM, independent replicates, read-out: Normalized % TOP2B activity, decatenation
  remaining activity at 30 µM: 5.87%
Recombinant human TOP2B [4]
  SRbeta (SRTOP2B), decatenation activity: 0.75
  pIC50: 5.35

## CCCc1cc(=O)oc2c(C(=O)N3CCCc4ccccc43)c(OCCN3CCN(C)CC3)ccc12 [topobexin (9)]
Recombinant human TOP2B [1]; [7]
  remaining activity at 0.0625 µM: 96.9%
  remaining activity at 0.125 µM: 95.3%
  remaining activity at 0.25 µM: 95.6%
  remaining activity at 0.5 µM: 87%
  remaining activity at 1 µM: 74%
  remaining activity at 2 µM: 48.9%
  remaining activity at 4 µM: 23.7%
  remaining activity at 8 µM: 9.64%
Recombinant human TOP2B [1]; [5]
  remaining activity at 1 µM: 16.4%
Recombinant human TOP2B [1]
  SRbeta (SRTOP2B), TOP2 ATPase activity: 12
  pIC50: 6.46
Recombinant human TOP2A [2]; 0.03125 μM, independent replicates, read-out: Normalized % TOP2A activity, ATPase
  remaining activity at 0.03125 µM: 89.4%
Recombinant human TOP2A [2]; [8]
  remaining activity at 0.0625 µM: 89.1%
  remaining activity at 0.125 µM: 88.8%
  remaining activity at 0.25 µM: 87.4%
  remaining activity at 1 µM: 73.3%
  remaining activity at 4 µM: 26.2%
  remaining activity at 8 µM: 5.71%
Recombinant human TOP2A [2]; [6]
  remaining activity at 0.0625 µM: 92.8%
  remaining activity at 0.25 µM: 79.6%
  remaining activity at 8 µM: 28.6%
  remaining activity at 16 µM: 14.4%
Recombinant human TOP2A [2]; 0.5 μM, independent replicates, normalized to 0 drug, read-out: Normalized % TOP2A activity
  remaining activity at 0.5 µM: 81.9%
Recombinant human TOP2A [2]; 2 μM, independent replicates, normalized to 0 drug, read-out: Normalized % TOP2A activity
  remaining activity at 2 µM: 53.8%
Recombinant human TOP2A [2]
  pIC50: 5.39
Recombinant human TOP2A [3]; 0.02 μM, independent replicates, read-out: Normalized % TOP2A activity, decatenation
  remaining activity at 0.02 µM: 87.1%
Recombinant human TOP2A [3]; 0.313 μM, independent replicates, read-out: Normalized % TOP2A activity, decatenation
  remaining activity at 0.313 µM: 96.1%
Recombinant human TOP2A [3]; 0.625 μM, independent replicates, read-out: Normalized % TOP2A activity, decatenation
  remaining activity at 0.625 µM: 91.5%
Recombinant human TOP2A [3]
  pIC50: 5.32
Recombinant human TOP2B [4]; 0.039 μM, independent replicates, read-out: Normalized % TOP2B activity, decatenation
  remaining activity at 0.039 µM: 92.3%
Recombinant human TOP2B [4]; 0.313 μM, independent replicates, read-out: Normalized % TOP2B activity, decatenation
  remaining activity at 0.313 µM: 29.3%
Recombinant human TOP2B [4]; 0.625 μM, independent replicates, read-out: Normalized % TOP2B activity, decatenation
  remaining activity at 0.625 µM: 15.5%
Recombinant human TOP2B [4]; 1.250 μM, independent replicates, read-out: Normalized % TOP2B activity, decatenation
  remaining activity at 1.25 µM: 10.9%
Recombinant human TOP2B [4]; 2.500 μM, independent replicates, read-out: Normalized % TOP2B activity, decatenation
  remaining activity at 2.5 µM: 11.1%
Recombinant human TOP2B [4]; 5.000 μM, independent replicates, read-out: Normalized % TOP2B activity, decatenation
  remaining activity at 5 µM: 9.87%
Recombinant human TOP2B [4]; 20.000 μM, independent replicates, read-out: Normalized % TOP2B activity, decatenation
  remaining activity at 20 µM: 5.03%
Recombinant human TOP2B [4]
  SRbeta (SRTOP2B), decatenation activity: 25
  pIC50: 6.72
